Assay results taken from US8058467B2, “Prostaglandin derivatives” (Nicox S.A., priority 2004, dated 2011).

Experiments:
[1] = tested on: rat pheochromocytoma cells (PC12); assay: cGMP accumulation in PC12 cells (nitric oxide-mediated activity); format: cell-based; conditions: for EC50: Rattus norvegicus, PC-12, 0.75 h, 30 μM YC-1, read-out: EC50 (effective concentration producing half maximal response), cGMP accumulation
Protocol: The formation of cyclic guanosine-3′,5′ monophosphate (cGMP) in cells in the eye is involved in the regulation of aqueous humor flow. Thus, elevation of cGMP levels leads to decreased aqueous humor production and reduction of intraocular pressure.
We measured the effects of test drugs on cGMP formation in a well established cell assay.
Undifferentiated pheochromocytoma cells (PC12) were used. The monolayer cells were incubated for 45 min in Hank's Balanced Salt Solution enriched with 10 mM Hepes, 5 mM MgCl2 and 0.05% ascorbic acid at the final pH of 7.4 and containing 100 μM of the phosphodiesterase inhibitor, isomethyl-butyl-xanthine (IBMX), 30 μM of the guanylyl cyclase […], YC-1, and the test drugs at the appropriate concentration. The reaction was terminated by the removal of the incubating buffer followed by the addition of […] of 100% ice-cold ethanol. The plate was then dried under hot air steam and the residue dissolved, extracted and analysed using commercially available cyclic cGMP enzyme immunoassay kit.

[2] = tested on: carbomer-evoked increase in IOP; assay: Intraocular pressure in carbomer-treated rabbits; format: in vivo, rabbit
Protocol: (§1) Male NZW rabbits ranging from 3-5 kgs of body weight were used in this study. Briefly, the ability of Latanoprost nitroderivative (compound 4, EXAMPLE 3) at reducing intraocular pressure (IOP) was tested in animals previously treated with intracameral injection of 0.25% carbomer solution installation until after a stable increase of the intraocular pressure was reached. In this particular study, test drugs were administered to one eye with the dosage schedule of 1 drop/eye/day for 5 days a week with a physiologic solution containing 0.005% of control or test compounds. The IOP was monitored 3 h after drug application, two-three times weekly for a total of 4 weeks. This concentration was chosen as it reflects that of latanoprost isopropyl ester currently used in clinic to treat the increase of IOP observed in glaucoma patients. Furthermore, at each visit, about 200 μl of aqueous humor was collected using a 30 gauge needle from both eyes under lidocaine anesthesia for further biochemical evaluation of cGMP, camp and nitrite/nitrate contents.

[3] = tested on: aqueous humor cGMP, cAMP and NOx; assay: cGMP, cAMP and NOx content of aqueous humor in carbomer-treated rabbits; format: in vivo, rabbit; conditions: for NOx / cAMP / cGMP: aqueous humor; for NOx in intraocular aqueous humor (in words) / cGMP in intraocular aqueous humor (in words) / intraocular cAMP (in words): over the 4-week treatment
Protocol: as §1

[4] = 45 min, 100 μM IBMX, 30 μM YC-1
[5] = Day 2, 0.005% solution, 1 drop/eye/day, 3 h after application
[6] = Day 7, 0.005% solution, 1 drop/eye/day, 3 h after application
[7] = Day 10, 0.005% solution, 1 drop/eye/day, 3 h after application
[8] = Day 15, 0.005% solution, 1 drop/eye/day, 3 h after application
[9] = Day 17, 0.005% solution, 1 drop/eye/day, 3 h after application
[10] = Day 23, 0.005% solution, 1 drop/eye/day, 3 h after application
[11] = Day 25, 0.005% solution, 1 drop/eye/day, 3 h after application
[12] = Pre-treatment (baseline after intracameral 0.25% carbomer)

EC50 ([1]; 45 min, 100 μM IBMX) [µM]	Compound	Emax (maximum effect), cGMP accumulation [1, 4]	IOP [2, 5] [mmHg]	IOP [2, 6] [mmHg]	IOP [2, 7] [mmHg]	IOP [2, 8] [mmHg]	IOP [2, 9] [mmHg]	IOP [2, 10] [mmHg]	IOP [2, 11] [mmHg]	IOP [2, 12] [mmHg]	NOx ([3]; I Week) [nmol/mg prot]	cAMP ([3]; I Week) [fmol/mg prot]	cGMP ([3]; I Week) [fmol/mg prot]	NOx ([3]; II Week) [nmol/mg prot]	cAMP ([3]; II Week) [fmol/mg prot]	cGMP ([3]; II Week) [fmol/mg prot]	NOx ([3]; III Week) [nmol/mg prot]	cAMP ([3]; III Week) [fmol/mg prot]	cGMP ([3]; III Week) [fmol/mg prot]	NOx ([3]; IV Week) [nmol/mg prot]	other results
2.4	O=C(CCC/C=C\C[C@@H]1[C@@H](CC[C@@H](O)CCc2ccccc2)[C@H](O)C[C@@H]1O)OCCCCO[N+](=O)[O-] (relative stereo) [Compound 1, [1R-[1α(Z),2α(R*),3α,5α]]-7-[3,5-dihydroxy-2-(3-hydroxy-5-phenylpentyl)cyclopentyl]-5-heptenoic acid 4-(nitrooxy)butyl ester]	290 % over vehicle																			
4.4	O=C(CCC/C=C\C[C@@H]1[C@@H](CC[C@@H](O)CCc2ccccc2)[C@H](O)C[C@@H]1O)Oc1cccc(CO[N+](=O)[O-])c1 (relative stereo) [Compound 4, [1R-[1α(Z),2β(R*),3α,5α]]-7-[3,5-dihydroxy-2-(3-hydroxy-5-phenylpentyl)cyclopentyl]-5-heptenoic acid 3-(nitrooxymethyl)phenyl ester]	450 % over vehicle	31 ± 1	26 ± 1	20 ± 1	18 ± 2	16 ± 1	15 ± 1	14 ± 1	42 ± 2	22 ± 2	600 ± 25	102 ± 5	25 ± 3	650 ± 31	125 ± 5	26 ± 3	680 ± 28	140 ± 5	28 ± 3	decrease of intraocular pressure ([2]; by the end of the study (4 weeks)): over 65%; decrease of intraocular pressure ([2]; within 7 days of repeated treatments): about 50%; cAMP ([3]; IV Week): 660 ± 22 fmol/mg prot; cGMP ([3]; IV Week): 160 ± 5 fmol/mg prot; NOx ([3]; Pre-treatment): 17 ± 1 nmol/mg prot; cAMP ([3]; Pre-treatment): 520 ± 20 fmol/mg prot; cGMP ([3]; Pre-treatment): 88 ± 5 fmol/mg prot; NOx in intraocular aqueous humor (in words) [3]: increased; cGMP in intraocular aqueous humor (in words) [3]: increased; intraocular cAMP (in words) [3]: remained unaltered
1.5	COc1cc(/C=C/C(=O)OCCCCO[N+](=O)[O-])ccc1OC(=O)CCC/C=C\C[C@@H]1[C@@H](CC[C@@H](O)CCc2ccccc2)[C@H](O)C[C@@H]1O (relative stereo) [Compound 11, [1R-[1α(Z), 2β(R*),3α,5α]]-7-[3,5-dihydroxy-2-(3-hydroxy-5-phenylpentyl)cyclopentyl]-5-heptenoicacid[2-methoxy-4-[2-propenoyloxy(4-nitrooxybutyl)]]phenyl ester]	480 % over vehicle																			
	CC(C)OC(=O)CCC/C=C\C[C@@H]1[C@@H](CC[C@@H](O)CCc2ccccc2)[C@H](O)C[C@@H]1O [Latanoprost isopropyl ester, reference compound]		34 ± 2	33 ± 3	30 ± 1	31 ± 2	30 ± 2	32 ± 2	30 ± 2	37 ± 2	18 ± 2	550 ± 22	88 ± 6	18 ± 1	600 ± 30	98 ± 6	19 ± 2	620 ± 31	99 ± 6	19 ± 2	change of intraocular pressure (in words) ([2]; 0.005% solution, 1 drop/eye/day, 4 weeks): nor its isopropyl derivative elicited any appreciable change; cAMP ([3]; IV Week): 625 ± 31 fmol/mg prot; cGMP ([3]; IV Week): 100 ± 6 fmol/mg prot; NOx ([3]; Pre-treatment): 16 ± 1 nmol/mg prot; cAMP ([3]; Pre-treatment): 510 ± 18 fmol/mg prot; cGMP ([3]; Pre-treatment): 87 ± 6 fmol/mg prot; NOx in intraocular aqueous humor (in words) [3]: did not significantly affect; cGMP in intraocular aqueous humor (in words) [3]: did not significantly affect; intraocular cAMP (in words) [3]: did not significantly affect
	CC(C)OC(=O)CCC/C=C\C[C@@H]1[C@@H](CC[C@@H](O)CCc2ccccc2)[C@H](O)C[C@@H]1O [Latanoprost, reference compound]	Not effective																			cGMP accumulation (in words) ([1]; 1-50 μM): not shared; EC50 (effective concentration producing half maximal response), cGMP accumulation [1, 4]: Not effective
